Reference: US20110263478A1, “SUR1 INHIBITORS FOR THERAPY” (priority 2008, published 2011)
“Also recorded” adds a separate entry of the source.

Key:
[1] = test system: rats with subarachnoid hemorrhage (SAH); assay: Rat SAH model: immunohistochemistry of inferomedial cortex and posterior cerebral artery; assay type: in vivo; settings: 24 hr after SAH
Experimental: Model of SAH. All surgical procedures were approved by the Institutional Animal Care and Use Committee of the University of Maryland. […] Fasted male Wistar rats (225-275 gm; Harlan, Indianapolis, Ind.) were anesthetized (ketamine, 60 mg/kg and xylazine, 7.5 mg/kg, intraperitoneally) and allowed to ventilate air spontaneously. Temperature was maintained at 37° C. using a heating pad regulated by a rectal temperature sensor (Harvard Apparatus, Holliston, M A). The laser Doppler flowmetry (LDF) probe (MoorLab, Moore Instruments, Sussex, UK) was affixed to the skull. The right carotid sheath was exposed through a ventral midline incision, the common, external and internal carotid arteries (CCA, ECA, ICA) were dissected, and the pterygopalatine artery was ligated. Typical blood gases (i-STAT, Heska Corp, Fort Collins, Colo.), sampled from the CCA before injury, were pO2>90 mm Hg, pCO2<47 mm Hg, and glucose 150-200 mg/dl.
The model of SAH involved a single endovascular puncture of the ICA using a 4-0 filament sharpened at its tip, followed by reperfusion of the ICA (Schwartz et al. 2000). With temporary clips on the CCA and ICA, the ECA was divided proximal to the ligature, the 4-0 nylon filament was introduced through the stump of the ECA into the ICA, arterial puncture was produced at ˜19 mm under LDF monitoring, the filament was withdrawn, the ECA stump was ligated and flow was restored to the CCA/ICA. Unlike the widely used method in which a 3-0 filament is used to produce severe hemorrhage associated with high mortality, the method used here utilizing a 4-0 filament produced mild-tomoderate SAH associated with low mortality. We monitored rCBF using LDF to confirm the sharp drop after puncture and filament withdrawal, and to assure the full recovery in rCBF within 10-15 min of restoration of flow in the ICA, making ischemic injury less likely than in versions of the model in which the CCA is ligated.
Controls received the same volume of vehicle in the same way. […] The osmotic mini-pumps delivered 0.5 μl/hr, yielding infusion doses of 200 ng/hr.
Rats were euthanized 24 hr after induction of SAH. In some cases, fresh tissues were collected for immunoblot. In other cases, animals underwent perfusion fixation for immunohistochemistry or in situ hybridization.
Immunohistochemistry. Cryosections (10 μm) were post-fixed with 4% formaldehyde and immunolabeled using standard techniques. After permeabilizing (0.3% Triton X-100 for 10 min), sections were blocked (2% donkey serum for 1 hr; Sigma D-9663), then incubated with primary antibody directed against: SUR1 (1:200; SC-5789; Santa Cruz Biotechnology); NeuN (1:100; MAB377; Chemicon, CA); GFAP (1:500; CY3 conjugated; C-9205; Sigma, St. Louis, Mo.); vonWillebrand factor (1:200; F3520, Sigma); TNFα (1:100; Santa Cruz); p65 (1:100; Santa Cruz); FITC-conjugated IgG (1:200; Santa Cruz); ZO-1 (1:100; Zymed Laboratories). Fluorescent-labeled, species appropriate secondary antibodies (Molecular Probes, OR) were used for visualization. Omission of primary antibody and competition with antigenic peptides, when available, were used as negative controls. Fluorescent signals were visualized using epifluorescence microscopy (Nikon Eclipse E1000).
For quantitative immunohistochemistry, all sections were immunolabeled as a single batch, as previously described (Gerzanich et al. 2003). All images were collected using uniform parameters of magnification and exposure. Segmentation analysis was performed by computing a histogram of the pixel intensity for equal regions of interest (ROI) using IP Lab software, with the ROI confined to the 400 μm of parenchymal tissue dorsal to the pia of the inferomedial cortex ipsilateral to the SAH. For IgG, the overall pixel intensity of the ROI was determined and the background was subtracted. […]

rats with percussion-TBI [2] = assay: Percussion-TBI rats: extravasated blood (progressive secondary hemorrhage); assay type: in vivo, rat
Description: (§1) Young adult male Long-Evans rats, 240-280 gm, were studied. Rats were anesthetized (Ketamine and Xylazine) and physiological parameters including temperature and blood gases were maintained within appropriate physiological ranges. With the head fixed in a stereotaxic frame, a 6-mm circular craniectomy was created abutting the sagittal and lambdoidal sutures. A posterior location was chosen to emphasize damage to underlying hippocampus (Vink et al., 2001; Floyd et al., 2002). […] Sham controls underwent craniectomy without percussion.

[3] = test system: recombinant MMP-2 and MMP-9; assay: Zymography of gelatinase activity of recombinant MMP; assay type: biochemical; settings: glibenclamide 10 μM; MMP-inhibitor II 300 nM
Experimental: In post-ischemic reperfusion of CNS tissues, catastrophic failure of capillary integrity has been attributed to the action of matrix metalloproteinases (MMP) (Wang et al., 2004).
Zymography of recombinant MMP-2 and MMP-9 (Sigma) was performed as described (Sumii and Lo, 2002).

rats with percussion-TBI [4] = assay: Percussion-TBI rats: neurobehavioral function (SFU, SVE); assay type: in vivo, rat
Description: as §1
Spontaneous forelimb use (SFU) was quantified and spontaneous vertical exploration (SVE) was quantified during 7 days post-TBI. SFU measures sensorimotor asymmetry (Schallert et al., 2000) whereas SVE measures not only vestibulomotor function but also time spent in exploratory activity.

## COc1ccc(Cl)cc1C(=O)NCCc1ccc(S(=O)(=O)NC(=O)NC2CCCCC2)cc1 [glibenclamide]
[1]
  protein (IgG) endocytosis by neurons: essentially absent
[1]; 5 rats
  caspase-3 activation in the PCA: absent in ⅘ rats and was minimal in the fifth
[1]; vs vehicle
  ZO-1 localization in PCA endothelium: significantly reduced cytoplasmic localization and restored intercellular localization
  caspase-3 activation in parenchymal tissues: significantly reduced
  local inflammation (TNFα, p65 immunolabeling): significantly reduced
  reactive astrocytosis (GFAP immunolabeling): significantly reduced
Rats with percussion-TBI [2]; 6 and 24 hr post-TBI, vs vehicle
  extravasated blood at later times: prevented further increases in blood
Rats with percussion-TBI [2]; ½ hr post-TBI
  volume of blood in brain homogenate: did not affect
[3]
  gelatinase activity of recombinant MMP: the same; also recorded: not affected
Rats with percussion-TBI [4]; 1, 2 and 7 days post-TBI, vs controls
  spontaneous vertical exploration (SVE): significantly greater SVE scores
Rats with percussion-TBI [4]; 2 days post-TBI, controls 3.5±3.5%, P=0.05
  spontaneous use of forelimb contralateral to injury: 16.5±3.4%
